In paper PMC11432330, “Novel Drug-like HsrA Inhibitors Exhibit Potent Narrow-Spectrum Antimicrobial Activities against Helicobacter pylori” (International Journal of Molecular Sciences, 2024):
Values after ≈ are worked out from the molar mass of the structure shown. “Also recorded” adds a separate entry of the source. Where two headings read alike, the source gives them in different places.

Experiments:
C. jejuni ATCC 33560 = experiment: MIC/MBC, broth microdilution; type: cell-based; conditions: Campylobacter jejuni, ATCC33560, C. jejuni ATCC 33560
Procedure: (§1) The antimicrobial activity of the HsrA inhibitors was evaluated by the determination of the minimal inhibitory concentration (MIC) against four different strains of H. pylori: ATCC 700392 (aka 26695), ATCC 43504 (MTZ-resistant reference strain), ATCC 700684 (CLR-resistant reference strain), and Donostia 2 (LVX-resistant clinical isolate). The MICs were determined by the broth microdilution method, as previously described. Briefly, H. pylori strains were grown in blood agar at 37 °C for 72 h under microaerobic conditions. Fresh inoculums adjusted at OD600 = 0.01 [~10^6 colony forming units (CFU) per mL] in BHI broth supplemented with 4% fetal bovine serum (BHI + FBS) were prepared and immediately exposed to final concentrations between 64 and 0.031 mg/L of each compound of interest. The compound solvent (DMSO) as well as conventional antibiotics (MTZ, CLR, LVX) were included as controls. […] Each experiment was performed twice in triplicate. The MIC and MBC values of the selected compounds against C. jejuni ATCC 33560 were determined by using the same method and culture conditions described for the H. pylori strains.

[1] = system: K. pneumoniae ATCC 700603; experiment: MIC/MBC according to EUCAST guidelines; type: cell-based, Klebsiella pneumonia; conditions: Klebsiella pneumoniae, ATCC700603
Procedure: The antimicrobial activities of the selected compounds against several Gram-negative and Gran-positive representative species of normal human microbiota were determined according to the EUCAST guidelines. Briefly, standardized inoculums (0.5 McFarland) were freshly prepared from overnight Mueller–Hinton agar plates of reference strains E. coli ATCC 25922, K. pneumonia ATCC 700603, E. faecalis ATCC 29212, S. aureus ATCC 29213, S. epidermidis ATCC 12228, and S. agalactiae ATCC 12386. Next, bacterial suspensions adjusted to 5 × 10^5 CFU/mL in Mueller–Hinton broth were exposed to a range of concentrations from 64 to 0.031 mg/L of the selected compounds. DMSO and conventional antibiotics LVX and AMP were included as controls. […] Experiments were performed twice in triplicate.

HeLa cells = experiment: Cytotoxicity, PrestoBlue cell viability assay; type: cell-based; conditions: for TI (CC50/MIC), therapeutic index: CC50 on HeLa / higher MIC observed against H. pylori
Procedure: (§2) The in vitro toxicity of the selected HsrA inhibitors was determined on HeLa cells by the PrestoBlue^TM assay, as previously described. Briefly, cells were cultured at 37 °C with 5% CO2 in Dulbecco’s modified Eagle’s medium containing 10% fetal bovine serum, 1% L-GlutaMAX^TM solution (Thermo Fisher Scientific), and 1% penicillin/streptomycin. When 80% confluence was achieved, cells were detached, counted, seeded in 96-well microplates at a density of 10,000 cells per well, and allowed to adhere for 24 h. Next, the mammalian cells were exposed to selected compounds at a range of 0.125 to 128 mg/L. After 24 h of exposure, the cell viability was measured with the PrestoBlue^TM cell viability reagent (Thermo Fisher Scientific), according to the manufacturer’s instructions. Experiments were performed twice in triplicate. The 50% cytotoxic concentration (CC50) of each compound was calculated by regression analysis using Microsoft Excel. Therapeutic index (TI) values were calculated as the ratio of the CC50 to the higher MIC observed for each compound [111].

[2] = Cytotoxicity, PrestoBlue cell viability assay; type: cell-based; conditions: human; HeLa cells, 24 h exposure; read-out: CC50 (50% cytotoxic concentration)
Procedure: as §2

H. pylori = experiment: MIC across the four H. pylori strains tested (text summaries); type: cell-based, Helicobacter pylori; conditions: for MIC: Helicobacter pylori
Procedure: as §1

response regulator HsrA = experiment: EMSA: inhibition of in vitro DNA binding activity of HsrA to promoter PporGDAB; type: biochemical, Helicobacter pylori; conditions: 6 μM HsrA, 120 ng PporGDAB, ligand 0.1-2 mM
Procedure: The DNA binding activities of recombinant HsrA and CosR were assessed in vitro by electrophoretic mobility shift assays (EMSAs). A 300-bp promoter region of the H. pylori 26695 operon porGDAB was used as the target sequence of HsrA in all EMSA experiments. Likewise, a 420-bp sequence of the C. jejuni sodB promoter (ATCC 33560) was used as the target DNA of CosR [90]. The oligonucleotides used for the synthesis of these promoter regions are described in Supplementary Table S4. Response regulators HsrA (6 μM) or CosR (700 nM) were mixed with 120 ng of their target promoters in a reaction buffer of 10 mM bis-Tris (pH 7.5), 40 mM KCl, 100 mg/L BSA, 1 mM DTT, and 5% glycerol. For the in vitro inhibition analyses, mixtures of target DNA and response regulator were exposed to 2, 1, 0.5, and 0.1 mM of each compound of interest, incubated at room temperature for 20 min, and then separated on a 6% non-denaturing electrophoresis. DMSO instead of inhibitors was included as a vehicle control, while an internal sequence of the Anabaena sp. pkn22 gene was used as the non-specific competitor in all assays. For DNA-protein binding visualization, gels were stained with the SYBR Safe DNA gel stain (Invitrogen) and analyzed with a Gel Doc 2000 Image Analyzer (Bio-Rad).

H. pylori ATCC 700392 = experiment: Checkerboard assay with first-line antibiotics; type: cell-based, Helicobacter pylori
Procedure: Potential synergisms between the selected HsrA inhibitors and first-line antibiotics were evaluated by using checkerboard assays, as previous described. Briefly, the antimicrobials to be tested were twofold serially diluted in BHI + FBS using independent sterile microtiter plates. Then, concentration gradients from two antimicrobials were aseptically mixed at equal volumes in a new microtiter plate, resulting in a matrix of 77 unique combinations of both compounds. Next, freshly prepared inoculum of H. pylori ATCC 700392 adjusted at 2 × 10^6 CFU/mL in BHI+ FBS were added to all wells, and plates were incubated for 72 h at 37 °C under microaerophilic conditions. […] The fractional inhibitory concentration index (FICI) for each antimicrobial combination was calculated as previously described. Values of FICI ≤ 0.5, 0.5 < FICI ≤ 1, 1 < FICI ≤ 4, and FICI > 4 were considered as indicative of synergistic, additive, neutral, or antagonist interactions, respectively.

[3] = four strains incl. CLR-, MTZ- and LVX-resistant, read-out: MIC against all H. pylori strains tested
[4] = in combination with CLR (clarithromycin)
[5] = in combination with LVX (levofloxacin)
[6] = in combination with MTZ (metronidazole)

| SMILES | MBC (C. jejuni ATCC 33560) [µg/mL] | MIC (C. jejuni ATCC 33560) [µg/mL] | MBC [1] [µg/mL] | MIC [1] [µg/mL] | Cytotoxicity at 8 mg/L (HeLa cells; HeLa cells, 8 mg/L, 24 h) | CC50 at 24 h [2] [µg/mL] | MIC (H. pylori; [3]) [µg/mL] | Inhibition of in vitro DNA binding activity of HsrA (EMSA) (response regulator HsrA) | FICI (H. pylori ATCC 700392; [4]) | FICantibiotic (H. pylori ATCC 700392; [4]) | FICinhibitor (H. pylori ATCC 700392; [4]) | FICI (H. pylori ATCC 700392; [5]) | FICantibiotic (H. pylori ATCC 700392; [5]) | FICinhibitor (H. pylori ATCC 700392; [5]) | Interaction (H. pylori ATCC 700392; [5]) | FICI (H. pylori ATCC 700392; [6]) | FICantibiotic (H. pylori ATCC 700392; [6]) | FICinhibitor (H. pylori ATCC 700392; [6]) | TI (CC50/MIC), therapeutic index (HeLa cells) | further results |
| --- | --- | --- | --- | --- | --- | --- | --- | --- | --- | --- | --- | --- | --- | --- | --- | --- | --- | --- | --- | --- |
| NC(=NOC(=O)Nc1ccc(Cl)cc1)c1csc([N+](=O)[O-])c1 [Ligand V, N′-{[(4-chloroanilino)carbonyl]}oxy-5-nitrothiophene-3-carboximidamide] | ≤ 0.5 | ≤ 0.5 | > 64 | > 64 | completely safe | 183 (≈ 538 µM) | 0.031 to 4 (≈ 0.091 to 11.7 µM) | noticeably inhibited | 0.56 | 0.5 | 0.06 | 2 | 1 | 1 | Neutral (no interaction or neutral (FICI > 1 to ≤4)) | 0.625 | 0.125 | 0.5 | – | MIC (H. pylori; read-out: MIC against all H. pylori strains tested, four strains incl. CLR-, MTZ- and LVX-resistant): 0.031 to 0.125 µg/mL (≈ 0.091 to 0.367 µM); Antimicrobial potency relative to ligand XII (H. pylori; same H. pylori strains): at least 4 fold; Antimicrobial potency relative to metronidazole (H. pylori; same H. pylori strains): more than 10 fold |
| OC1(C(F)(F)F)CC(c2ccc3c(c2)Nc2ccccc2S3)=NN1 (stereo not shown) [Ligand VIII] | 32 (≈ 91.1 µM) | 16 (≈ 45.5 µM) | > 64 | > 64 | – | 6.5 (≈ 18.5 µM) | 0.031 to 4 (≈ 0.0882 to 11.4 µM) | appreciably stronger; also recorded: noticeably inhibited | 0.53 | 0.5 | 0.03 | 2 | 1 | 1 | Neutral (no interaction or neutral (FICI > 1 to ≤4)) | 0.625 | 0.5 | 0.125 | 3.2 | Cell death (HeLa cells; HeLa cells, 8 mg/L, 24 h): 68% |
| CSc1cccc(NC(=S)NCCNc2c([N+](=O)[O-])cc(C(F)(F)F)cc2[N+](=O)[O-])c1 [Ligand IV] | > 64 | 64 (≈ 135 µM) | > 64 | > 64 | completely safe | 135 (≈ 284 µM) | 0.031 to 4 (≈ 0.0652 to 8.41 µM) | appreciably stronger; also recorded: noticeably inhibited | 2 | 1 | 1 | 2 | 1 | 1 | – | 2 | 1 | 1 | – | – |
| CSc1cccc(Nc2nc(C(C)(C)C)cs2)c1 [Ligand XI] | > 64 | > 64 | > 64 | > 64 | completely safe | 21.8 (≈ 78.3 µM) | 0.031 to 4 (≈ 0.111 to 14.4 µM) | noticeably inhibited | 0.75 | 0.25 | 0.5 | 2 | 1 | 1 | Neutral (no interaction or neutral (FICI > 1 to ≤4)) | 0.563 | 0.5 | 0.063 | 5.4 | – |
| N#C/C(=C\C=C\c1ccccc1)c1nc2ccccc2[nH]1 [Ligand XII] | > 64 | 64 (≈ 236 µM) | > 64 | > 64 | – | 13.4 (≈ 49.4 µM) | 0.031 to 4 (≈ 0.114 to 14.7 µM) | noticeably inhibited | 0.75 | 0.25 | 0.5 | 1 | 0.5 | 0.5 | – | 0.5 | 0.25 | 0.25 | 6.7 | Interaction (H. pylori ATCC 700392; [4]): Additive (additive (FICI > 0.5 to ≤1)) |
